Data published in patent US20130065818A1, “Arylamide Compounds And Compositions And Uses Thereof” (POLYMEDIX, priority 2006, published 2013).
In brackets after ≈: the same amount, converted by molar mass. Where two headings read alike, the source gives them in different places.

What was measured:
Assay type in all cases: cell-based
[1] = system: Haemophilus influenzae; assay: MIC, 25 ocular isolates, broth microdilution (Example 8)
Procedure: HTM (Haemophilus Test Medium) in tubes was inoculated with 25 ocular isolates of Haemophilus influenzae plus two controls (Staphylococcus aureus and E. coli) and incubated at 37° C. overnight. Additionally, Mueller-Hinton Broth in tubes was inoculated with two controls (Staphylococcus aureus and E. coli) and incubated at 37° C. overnight on a shaker set at 250 rpm.
On the day of testing, a 640 μg/ml (1280 μg/ml for Serratia marcescens and Pseudomonas aeruginosa) concentration was prepared from a 1% stock solution in 0.01% acetic acid, 0.2% BSA in polypropylene tubes.
Serial doubling dilutions in 0.01% acetic acid, 0.2% BSA in 96 well polypropylene plates, which are used as reservoirs for the inoculation of the test plates, were carried out to obtain serial dilutions of test agents at 10 times the required test concentrations: 640, 320, 160, 80, 40, 20, 10, 5, 2.5, 1.25, and 0.625 μg/ml (1280, 640, 320, 160, 80, 40, 20, 10, 5, 2.5, and 1.25 μg/ml for Serratia marcescens and Pseudomonas aeruginosa).
Ten μl of diluted 10×test agents was added to each well of one row of the 96 well polypropylene plates from column 2 to column 12 (column 1 is a control for bacteria alone, with no peptide). Test agent concentrations in columns 2-12 were as follows: 64, 32, 16, 8, 4, 2, 1, 0.5, 0.25, 0.125, and 0.0625 μg/ml (128, 64, 32, 16, 8, 4, 2, 1, 0.5, 0.25, and 0.125 μg/ml for Serratia marcescens and Pseudomonas aeruginosa). The same peptide was in each of the 8 rows. One plate contained dilutions of one test agent and 8 bacterial isolates.
On the day of testing, the overnight bacterial broth cultures of Haemophilus species was diluted in 5 ml of trypticase soy broth to yield turbidity equal to a 0.5 McFarland standard. The final inoculum for MIC testing for Haemophilus species was achieved by placing 0.1 ml of the turbidity adjusted sample to 5 ml of HTM medium.
Ninety μl of the bacterial suspensions was dispensed in each well from column 1 to column 12. Each bacterial isolate was placed in one row of a 96 well polypropylene plate containing the test agents. The plates were placed on shaker at 15 minutes at room temperature, and then incubated at 37° C. overnight. MICs were determined visually as the lowest concentration of drug that inhibits visible bacterial growth.

[2] = system: E. coli D31; assay: MIC, control bacteria (Example 8)
[3] = system: K. pneumoniae Lab Strain KP10; assay: MIC, laboratory strains (Example 8)
[4] = system: P. aeruginosa ATCC 10145; assay: MIC, laboratory strains (Example 8)
[5] = Haemophilus influenzae, n=25 isolates, >64 replaced with 128

N=C(N)NCCCCC(=O)Nc1cc(C(F)(F)F)cc(NC(=O)c2cnc(C(=O)Nc3cc(C(F)(F)F)cc(NC(=O)CCCCNC(=N)N)c3SCCN)cn2)c1SCCN [Oligomer 5]
MIC ([1]; Haemophilus influenzae, 25 ocular isolates, HTM medium, read-out: Median MIC): 16 µg/mL (≈ 17.4 µM)
MIC ([1]; Haemophilus influenzae, isolate 1 B1359, read-out: MIC): > 64 µg/mL
MIC ([1]; Haemophilus influenzae, isolate 2 B1346, read-out: MIC): > 64 µg/mL
MIC ([1]; Haemophilus influenzae, isolate 3 B1345, read-out: MIC): > 64 µg/mL
MIC ([1]; Haemophilus influenzae, isolate 4 B1343, read-out: MIC): > 64 µg/mL
MIC ([1]; Haemophilus influenzae, isolate 5 B1338, read-out: MIC): 16 µg/mL (≈ 17.4 µM)
MIC ([1]; Haemophilus influenzae, isolate 6 B1332, read-out: MIC): 64 µg/mL (≈ 69.8 µM)
MIC ([1]; Haemophilus influenzae, isolate 7 B1331, read-out: MIC): > 64 µg/mL
MIC ([1]; Haemophilus influenzae, isolate 8 B1330, read-out: MIC): > 64 µg/mL
MIC ([1]; Haemophilus influenzae, isolate 9 B1379, read-out: MIC): 8 µg/mL (≈ 8.72 µM)
MIC ([1]; Haemophilus influenzae, isolate 10 B1378, read-out: MIC): 4 µg/mL (≈ 4.36 µM)
MIC ([1]; Haemophilus influenzae, isolate 11 B1313, read-out: MIC): 2 µg/mL (≈ 2.18 µM)
MIC ([1]; Haemophilus influenzae, isolate 12 B1477, read-out: MIC): 4 µg/mL (≈ 4.36 µM)
MIC ([1]; Haemophilus influenzae, isolate 13 B1286, read-out: MIC): 2 µg/mL (≈ 2.18 µM)
MIC ([1]; Haemophilus influenzae, isolate 14 B1282, read-out: MIC): 8 µg/mL (≈ 8.72 µM)
MIC ([1]; Haemophilus influenzae, isolate 15 B1291, read-out: MIC): 16 µg/mL (≈ 17.4 µM)
MIC ([1]; Haemophilus influenzae, isolate 16 B1280, read-out: MIC): 16 µg/mL (≈ 17.4 µM)
MIC ([1]; Haemophilus influenzae, isolate 17 B1279, read-out: MIC): 64 µg/mL (≈ 69.8 µM)
MIC ([1]; Haemophilus influenzae, isolate 18 B1260, read-out: MIC): 16 µg/mL (≈ 17.4 µM)
MIC ([1]; Haemophilus influenzae, isolate 19 B1238, read-out: MIC): 8 µg/mL (≈ 8.72 µM)
MIC ([1]; Haemophilus influenzae, isolate 20 B1209, read-out: MIC): 8 µg/mL (≈ 8.72 µM)
MIC ([1]; Haemophilus influenzae, isolate 21 B1249, read-out: MIC): 16 µg/mL (≈ 17.4 µM)
MIC ([1]; Haemophilus influenzae, isolate 22 B1248, read-out: MIC): 4 µg/mL (≈ 4.36 µM)
MIC ([1]; Haemophilus influenzae, isolate 23 B1244, read-out: MIC): 32 µg/mL (≈ 34.9 µM)
MIC ([1]; Haemophilus influenzae, isolate 24 B1419, read-out: MIC): 32 µg/mL (≈ 34.9 µM)
MIC ([1]; Haemophilus influenzae, isolate 25 B1222, read-out: MIC): > 64 µg/mL
MIC50 [1, 5]: 16 µg/mL (≈ 17.4 µM)
MIC90 [1, 5]: 128 µg/mL (≈ 140 µM)
MIC ([1]; Haemophilus influenzae, n=25 isolates, >64 replaced with 128, read-out: Median MIC): 16 µg/mL (≈ 17.4 µM)
Range of MICs ([1]; n=25 isolates, >64 replaced with 128): 2 to 128 µg/mL
Decrease of activity by addition of 2% lysed horse red blood cells to Mueller-Hinton broth ([2]; Control Bacteria E. coli D31): increase or have no effect
Decrease of activity by use of HTM broth ([2]; Control Bacteria E. coli D31): no effect
MIC ([2]; Control Bacteria Set #1, run with Haemophilus influenzae MIC test, read-out: MIC): 16 µg/mL (≈ 17.4 µM)
MIC ([2]; E. coli D31, Control for MIC Test SA-FQR, first batch): 4 µg/mL (≈ 4.36 µM)
MIC ([2]; E. coli D31, Control for MIC Test SA-FQS, first batch): 16 µg/mL (≈ 17.4 µM)
MIC ([2]; E. coli D31, new batches, Control Only 1): 8 µg/mL (≈ 8.72 µM)
MIC ([2]; E. coli D31, new batches, Control Only 2): 8 µg/mL (≈ 8.72 µM)
MIC ([2]; E. coli D31, new batches, Control Only 3): 8 µg/mL (≈ 8.72 µM)
MIC ([2]; E. coli D31, new batches, Control Only 4): 16 µg/mL (≈ 17.4 µM)
MIC ([2]; Escherichia coli, D31, Control Bacteria Set #1, run with Moraxella MIC test, read-out: MIC): 2 µg/mL (≈ 2.18 µM)
MIC ([2]; Escherichia coli, D31, Control Only 1, read-out: MIC of control bacteria on day of MIC testing): 8 µg/mL
MIC ([2]; Escherichia coli, D31, Control Only 2, read-out: MIC of control bacteria on day of MIC testing): 8 µg/mL
MIC ([2]; Escherichia coli, D31, Control Only 3, read-out: MIC of control bacteria on day of MIC testing): 8 µg/mL
MIC ([2]; Escherichia coli, D31, Control Only 4, read-out: MIC of control bacteria on day of MIC testing): 16 µg/mL
MIC ([2]; Escherichia coli, D31, E. coli D31, Control Bacteria Set #1 (same conditions as test isolates), run with Streptococcus pneumoniae MIC test, read-out: MIC): 2 µg/mL (≈ 2.18 µM)
MIC ([2]; Escherichia coli, D31, E. coli D31, Control Bacteria Set #1 (same conditions as test isolates), run with Streptococcus viridans group MIC test, read-out: MIC): 2 µg/mL (≈ 2.18 µM)
MIC ([2]; Escherichia coli, D31, E. coli D31, Control Bacteria Set #2 (Mueller-Hinton Broth), run with Streptococcus pneumoniae MIC test, read-out: MIC): 16 µg/mL (≈ 17.4 µM)
MIC ([2]; Escherichia coli, D31, E. coli D31, Control Bacteria Set #2 (Mueller-Hinton Broth), run with Streptococcus viridans group MIC test, read-out: MIC): 16 µg/mL (≈ 17.4 µM)
MIC ([2]; Escherichia coli, D31, E. coli D31, control bacteria run with Pseudomonas aeruginosa MIC test, read-out: MIC): 8 µg/mL (≈ 8.72 µM)
MIC ([2]; Escherichia coli, D31, E. coli D31, control bacteria run with S. aureus fluoroquinolone-resistant MIC test, read-out: MIC): 4 µg/mL (≈ 4.36 µM)
MIC ([2]; Escherichia coli, D31, E. coli D31, control bacteria run with S. aureus fluoroquinolone-susceptible MIC test, read-out: MIC): 16 µg/mL (≈ 17.4 µM)
MIC ([2]; Escherichia coli, D31, E. coli D31, control bacteria run with S. epidermidis fluoroquinolone-resistant MIC test, read-out: MIC): 4 µg/mL (≈ 4.36 µM)
MIC ([2]; Escherichia coli, D31, E. coli D31, control bacteria run with S. epidermidis fluoroquinolone-susceptible MIC test, read-out: MIC): 4 µg/mL (≈ 4.36 µM)
MIC ([2]; Escherichia coli, D31, E. coli D31, control bacteria run with Serratia marcescens MIC test, read-out: MIC): 4 µg/mL (≈ 4.36 µM)
MIC ([2]; Escherichia coli, D31, E. coli D31, MIC previously obtained (target MIC), printed in parentheses, read-out: MIC for Control Bacteria within the parentheses): 1.56 µg/mL (≈ 1.7 µM)
MIC ([2]; Escherichia coli, D31, E. coli D31, read-out: MIC): 1.56 µg/mL (≈ 1.7 µM)
MIC ([2]; Escherichia coli, D31, control for MIC test HI (Control Bacteria Set #2), read-out: MIC of control bacteria on day of MIC testing): 16 µg/mL
MIC ([2]; Escherichia coli, D31, control for MIC test MS (Control Bacteria Set #2), read-out: MIC of control bacteria on day of MIC testing): 16 µg/mL
MIC ([2]; Escherichia coli, D31, control for MIC test PA, read-out: MIC of control bacteria on day of MIC testing): 8 µg/mL
MIC ([2]; Escherichia coli, D31, control for MIC test SA-FQR, read-out: MIC of control bacteria on day of MIC testing): 4 µg/mL
MIC ([2]; Escherichia coli, D31, control for MIC test SA-FQS, read-out: MIC of control bacteria on day of MIC testing): 16 µg/mL
MIC ([2]; Escherichia coli, D31, control for MIC test SE-FQR, read-out: MIC of control bacteria on day of MIC testing): 4 µg/mL
MIC ([2]; Escherichia coli, D31, control for MIC test SE-FQS, read-out: MIC of control bacteria on day of MIC testing): 4 µg/mL
MIC ([2]; Escherichia coli, D31, control for MIC test SM, read-out: MIC of control bacteria on day of MIC testing): 4 µg/mL
MIC ([2]; Escherichia coli, D31, control for MIC test SP, read-out: MIC of control bacteria on day of MIC testing): 16 µg/mL
MIC ([2]; Escherichia coli, D31, control for MIC test SV, read-out: MIC of control bacteria on day of MIC testing): 16 µg/mL
MIC ([2]; Escherichia coli, D31, reference MIC printed in parentheses beside the day's control value, read-out: MIC for Control Bacteria (within the parentheses)): 1.56 µg/mL (≈ 1.7 µM)
MIC [3]: 1.56 µg/mL (≈ 1.7 µM)
MIC [4]: > 100 µg/mL
